Data from US20170305857A1, “N-ACYLPIPERIDINE ETHER TROPOMYOSIN-RELATED KINASE INHIBITORS” (Pfizer Limited, priority 2014, published 2017).

Biological target: T1, recombinant His-tagged cytoplasmic domains of TRKA receptor (NTRK1, PV3144, aa 441-796) (Homo sapiens, UniProt P04629)
T1 construct: aa 441-796; His; purchased Invitrogen PV3144
Experiment: Isolated TRK enzyme assay (HTRF KinEASE-TK, PV3144 TrkA enzyme assay)
Format: biochemical
Conditions: 4 nM enzyme, 40 uM ATP, 35 min, arithmetic mean where more than one reading
Outline: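 Enzyme and ATP were preincubated with compound for 20 min at room temperature in buffer with 10 mM MgCl and 2 mM DTT. TK-substrate-Biotin was then added (1 uM final) and the reaction run for an enzyme-specific optimized time. Phosphorylation was read by HTRF, and IC50 values came from sigmoid fits of percent inhibition normalized to plate controls, averaged over replicate readings.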

T1 sequence (P04629 441-796): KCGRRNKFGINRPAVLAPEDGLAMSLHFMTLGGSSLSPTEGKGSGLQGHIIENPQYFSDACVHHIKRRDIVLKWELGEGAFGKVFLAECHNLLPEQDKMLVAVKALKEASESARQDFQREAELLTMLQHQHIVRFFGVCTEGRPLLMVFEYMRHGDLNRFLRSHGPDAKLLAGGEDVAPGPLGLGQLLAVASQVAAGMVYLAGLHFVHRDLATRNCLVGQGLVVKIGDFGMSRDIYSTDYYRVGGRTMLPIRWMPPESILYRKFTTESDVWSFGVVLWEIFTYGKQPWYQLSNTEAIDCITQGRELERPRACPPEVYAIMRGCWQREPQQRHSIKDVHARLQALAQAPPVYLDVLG

## Cn1cnc(-c2ccc(O[C@H]3CCN(C(=O)Cc4ccc(OC5CC5)cc4)C[C@@H]3F)c(C(N)=O)c2)c1 [Example 42, 2-{[(3S,4S)-1-{[4-(cyclopropyloxy)phenyl]acetyl}-3-fluoropiperidin-4-yl]oxy}-5-(1-methyl-1H-imidazol-4-yl)benzamide]
  IC50: 3.1 nM

## NC(=O)c1cc(-c2cn[nH]c2)cnc1O[C@@H]1CCN(C(=O)Cc2ccc(OC(F)(F)F)cc2)C[C@@H]1F [Example 70, 2-{[(3S,4R)-3-fluoro-1-{[4-(trifluoromethoxy)phenyl]acetyl}piperidin-4-yl]oxy}-5-(1H-pyrazol-4-yl)pyridine-3-carboxamide]
  IC50: 1.6 nM

## Cc1cc(OC2CCN(C(=O)Cc3ccc(OC(F)(F)F)cc3)CC2)c(C(N)=O)cc1-c1cn(C)cn1 [Example 170, 4-methyl-5-(1-methyl-1H-imidazol-4-yl)-2-[(1-{[4-(trifluoromethoxy)phenyl]acetyl}piperidin-4-yl)oxy]benzamide]
  IC50: 17.6 nM

## NC(=O)c1cc(N2CCCC2)ncc1OC1CCN(C(=O)Cc2ccc(OC(F)(F)F)cc2)CC1 [Example 54, 2-(pyrrolidin-1-yl)-5-((1-(2-(4-(trifluoromethoxy)phenyl)acetyl)piperidin-4-yl)oxy)isonicotinamide]
  IC50: 42.4 nM

## Cn1cnc(-c2ccc(O[C@@H]3CCN(C(=O)Cc4ccc(OC5CC5)cc4)C[C@H]3F)c(C(N)=O)c2)c1 (racemic) [Example 44]
  IC50: 3.8 nM

## CS(=O)(=O)Cn1cc(-c2cnc(OC3CCN(C(=O)Cc4ccc(OC(F)(F)F)c(F)c4)CC3)c(C(N)=O)c2)cn1 [Example 21, 2-[(1-{[3-fluoro-4-(trifluoromethoxy)phenyl]acetyl}piperidin-4-yl)oxy]-5-{1-[(methylsulfonyl)methyl]-1H-pyrazol-4-yl}pyridine-3-carboxamide]
  IC50: 11 nM

## Cc1n[nH]c(C)c1-c1cnc(OC2CCN(C(=O)Cc3ccc(OC(F)(F)F)cc3)CC2)c(C(N)=O)c1 [Example 59, 5-(3,5-dimethyl-1H-pyrazol-4-yl)-2-[(1-{[4-(trifluoromethoxy)phenyl]acetyl}piperidin-4-yl)oxy]pyridine-3-carboxamide]
  IC50: 10 nM

## Cn1cnc(-c2cnc(O[C@H]3CCN(C(=O)Cc4ccc(OC5CC5)cc4)C[C@@H]3F)c(C(N)=O)c2)c1 [Example 27, 2-{[(3S,4S)-1-{[4-(cyclopropyloxy)phenyl]acetyl}-3-fluoropiperidin-4-yl]oxy}-5-(1-methyl-1H-imidazol-4-yl)pyridine-3-carboxamide]
  IC50: 2.1 nM

## Cc1nc(OC2CCN(C(=O)Cc3ccc(OC(F)(F)F)cc3)CC2)c(C(N)=O)cc1-c1cn(C)cn1 [Example 69, 6-methyl-5-(1-methyl-1H-imidazol-4-yl)-2-[(1-{[4-(trifluoromethoxy)phenyl]acetyl}piperidin-4-yl)oxy]pyridine-3-carboxamide]
  IC50: 6.1 nM

## Cn1cc(-c2ccc(O[C@H]3CCN(C(=O)Cc4ccc(OC(F)(F)F)cc4)C[C@H]3F)c(C(N)=O)c2)cn1 [Example 75, 2-{[(3R,4S)-3-fluoro-1-{[4-{trifluoromethoxy)phenyl]acetyl}piperidin-4-yl]oxy}-5-(1-methyl-1H-pyrazol-4-yl)benzamide]
  IC50: 0.9 nM

## Cn1cc(-c2ccc(OC3CCN(C(=O)Cc4ccc(OC(F)(F)F)c(Cl)c4)CC3)c(C(N)=O)c2)cn1 [Example 110, 2-[(1-{[3-chloro-4-(trifluoromethoxy)phenyl]acetyl}piperidin-4-yl)oxy]-5-(1-methyl-1H-pyrazol-4-yl)benzamide]
  IC50: 110 nM

## C[C@@H](CO)n1cc(-c2ccc(OC3CCN(C(=O)Cc4ccc(OC(F)(F)F)cc4)CC3)c(C(N)=O)c2)cn1 [Example 131, 5-{1-[(2S)-1-hydroxypropan-2-yl]-1H-pyrazol-4-yl}-2-[(1-{[4-(trifluoromethoxy)phenyl]acetyl}piperidin-4-yl)oxy]benzamide]
  IC50: 4.4 nM

## Cc1nc(-c2ccc(O[C@@H]3CCN(C(=O)Cc4ccc(OC(F)(F)F)cc4)C[C@@H]3F)c(C(N)=O)c2)c[nH]1 [Example 121]
  IC50: 1.5 nM

## NC(=O)c1cc(-c2ccn(CCO)n2)ccc1OC1CCN(C(=O)Cc2ccc(OC(F)(F)F)cc2)CC1 [Example 90, 5-[1-(2-hydroxyethyl)-1H-pyrazol-3-yl]-2-[(1-{[4-{trifluoromethoxy)phenyl]acetyl}piperidin-4-yl)oxy]benzamide]
  IC50: 4.2 nM

## CS(=O)(=O)Cn1cc(-c2cc(C(N)=O)c(O[C@H]3CCN(C(=O)Cc4ccc(OC5CC5)cc4)C[C@@H]3F)cn2)cn1 [Example 165, 5-{[(3S,4S)-1-{[4-(cyclopropyloxy)phenyl]acetyl}-3-fluoropiperidin-4-yl]oxy}-2-{1-[(methylsulfonyl)methyl]-1H-pyrazol-4-yl}pyridine-4-carboxamide]
  IC50: 15.9 nM

## Cn1ncc(-c2cnc(O[C@@H]3CCN(C(=O)Cc4ccc(OC(F)(F)F)cc4)C[C@@H]3F)c(C(N)=O)c2)n1 [Example 154, 2-{[(3S,4R)-3-fluoro-1-{[4-(trifluoromethoxy)phenyl]acetyl}piperidin-4-yl]oxy}-5-(2-methyl-2H-1,2,3-triazol-4-yl)pyridine-3-carboxamide]
  IC50: 2.93 nM

## CC(C)c1ccc(CC(=O)N2CCC(Oc3ccc(-c4cnn(C)c4)cc3C(N)=O)CC2)cc1 [Example 109, 5-(1-methyl-1H-pyrazol-4-yl)-2-[(1-{[4-(propan-2-yl)phenyl]acetyl}piperidin-4-yl)oxy]benzamide]
  IC50: 7.1 nM

## NC(=O)c1cc(-c2cnn(C3COC3)c2)ccc1OC1CCN(C(=O)Cc2ccc(OC(F)(F)F)cc2)CC1 [Example 57, 5-[1-(oxetan-3-yl)-1H-pyrazol-4-yl]-2-[(1-{[4-(trifluoromethoxy)phenyl]acetyl}piperidin-4-yl)oxy]benzamide]
  IC50: 2.6 nM

## Cn1cc(-c2ccc(OC3CCN(C(=O)Cc4ccc(OC(F)(F)F)cn4)CC3)c(C(N)=O)c2)cn1 [Example 10, 5-(1-methyl-1H-pyrazol-4-yl)-2-[(1-{[5-(trifluoromethoxy)pyridin-2-yl]acetyl}piperidin-4-yl)oxy]benzamide]
  IC50: 9.9 nM

## NC(=O)c1cc(-c2cnn(C[C@@H](O)CO)c2)ccc1OC1CCN(C(=O)Cc2ccc(OC(F)(F)F)cc2)CC1 [Example 122]
  IC50: 4.4 nM

## Cn1cnc(-c2ccc(OC3CCN(C(=O)Cc4ccc(OC(F)(F)F)cc4)C4CC34)c(C(N)=O)c2)c1 (stereo not shown) [Example 159, 5-(1-methyl-1H-imidazol-4-yl)-2-[(2-{[4-(trifluoromethoxy)phenyl]acetyl}-2-azabicyclo[4.1.0]hept-5-yl)oxy]benzamide]
  IC50: 17.8 nM

## Cn1cnc(-c2ccc(OC3CCN(C(=O)Cc4ccc(OC5CC5)cc4)CC3)c(C(N)=O)c2)c1 [Example 17, 2-[(1-{[4-(cyclopropyloxy)phenyl]acetyl}piperidin-4-yl)oxy]-5-(1-methyl-1H-imidazol-4-yl)benzamide]
  IC50: 10.4 nM

## CS(=O)(=O)Cn1cc(-c2cnc(O[C@H]3CCN(C(=O)Cc4ccc(OC(F)(F)F)cc4)C[C@@H]3F)c(C(N)=O)c2)cn1 [Example 25, 2-{[(3S,4S)-3-fluoro-1-{[4-(trifluoromethoxy)phenyl]acetyl}piperidin-4-yl]oxy}-5-{1-[(methylsulfonyl)methyl]-1H-pyrazol-4-yl}pyridine-3-carboxamide]
  IC50: 3.7 nM

## CS(=O)(=O)Cn1cc(-c2cnc(O[C@@H]3CCN(C(=O)Cc4ccc(OC5CC5)cc4)C[C@@H]3F)c(C(N)=O)c2)cn1 [Example 28, 2-{[(3S,4R)-1-{[4-(cyclopropyloxy)phenyl]acetyl}-3-fluoropiperidin-4-yl]oxy}-5-{1-[(methylsulfonyl)methyl]-1H-pyrazol-4-yl}pyridine-3-carboxamide]
  IC50: 2.3 nM

## CC(N)c1ccc(-c2ccc(OC3CCN(C(=O)Cc4ccc(OC(F)(F)F)cc4)CC3)c(C(N)=O)c2)cc1 (racemic) [Example 103, Racemic 4′-(1-aminoethyl)-4-[(1-{[4-(trifluoromethoxy)phenyl]acetyl}piperidin-4-yl)oxy]biphenyl-3-carboxamide]
  IC50: 2.7 nM

## Cn1cnc(-c2cnc(O[C@H]3CCN(C(=O)Cc4ccc(OC5CC5)cn4)C[C@@H]3F)c(C(N)=O)c2)c1 [Example 31, 2-{[(3S,4S)-1-{[5-(cyclopropyloxy)pyridin-2-yl]acetyl}-3-fluoropiperidin-4-yl]oxy}-5-(1-methyl-1H-imidazol-4-yl)pyridine-3-carboxamide]
  IC50: 9 nM

## NC(=O)c1cc(-c2ccc(C(=O)O)cc2)cnc1OC1CCN(C(=O)Cc2ccc(OC(F)(F)F)cc2)CC1 [Example 95, 4-{5-carbamoyl-6-[(1-{[4-(trifluoromethoxy)phenyl]acetyl}piperidin-4-yl)oxy]pyridin-3-yl}benzoic acid]
  IC50: 5.9 nM

## Cn1cnc(-c2ccc(OC3CCN(C(=O)Cc4ccc(OC(F)(F)F)c(Cl)c4)CC3)c(C(N)=O)c2)c1 [Example 16, 2-[(1-{[3-chloro-4-(trifluoromethoxy)phenyl]acetyl}piperidin-4-yl)oxy]-5-(1-methyl-1H-imidazol-4-yl)benzamide]
  IC50: 10.5 nM

## Cn1cc(-c2ccc(OC3CCN(C(=O)Cc4ccc(C(C)(C)C)cc4)CC3)c(C(N)=O)c2)cn1 [Example 107, 2-({1-[(4-tert-butylphenyl)acetyl]piperidin-4-yl}oxy)-5-(1-methyl-1H-pyrazol-4-yl)benzamide]
  IC50: 9.8 nM

## NC(=O)c1cc(-c2cnn(C3CS(=O)(=O)C3)c2)cnc1O[C@H]1CCN(C(=O)Cc2ccc(OC(F)(F)F)cc2)C[C@H]1F (racemic) [Example 38, 1:1 Cis-racemic 5-[1-(1,1-dioxidothietan-3-yl)-1H-pyrazol-4-yl]-2-{[3-fluoro-1-{[4-(trifluoromethoxy)phenyl]acetyl}piperidin-4-yl]oxy}pyridine-3-carboxamide]
  IC50: 2 nM

## CC(N)c1ccc(-c2cnc(OC3CCN(C(=O)Cc4ccc(OC(F)(F)F)cc4)CC3)c(C(N)=O)c2)cc1 (stereo in doubt) [Example 96, 5-{4-[(1S)-1-aminoethyl]phenyl}-2-[(1-{[4-(trifluoromethoxy)phenyl]acetyl}piperidin-4-yl)oxy]pyridine-3-carboxamide]
  IC50: 5 nM
